What all share (assay type): biochemical
Test [1] addresses T1, Itk (Homo sapiens, UniProt Q08881).
T1 sequence (Q08881 1-620): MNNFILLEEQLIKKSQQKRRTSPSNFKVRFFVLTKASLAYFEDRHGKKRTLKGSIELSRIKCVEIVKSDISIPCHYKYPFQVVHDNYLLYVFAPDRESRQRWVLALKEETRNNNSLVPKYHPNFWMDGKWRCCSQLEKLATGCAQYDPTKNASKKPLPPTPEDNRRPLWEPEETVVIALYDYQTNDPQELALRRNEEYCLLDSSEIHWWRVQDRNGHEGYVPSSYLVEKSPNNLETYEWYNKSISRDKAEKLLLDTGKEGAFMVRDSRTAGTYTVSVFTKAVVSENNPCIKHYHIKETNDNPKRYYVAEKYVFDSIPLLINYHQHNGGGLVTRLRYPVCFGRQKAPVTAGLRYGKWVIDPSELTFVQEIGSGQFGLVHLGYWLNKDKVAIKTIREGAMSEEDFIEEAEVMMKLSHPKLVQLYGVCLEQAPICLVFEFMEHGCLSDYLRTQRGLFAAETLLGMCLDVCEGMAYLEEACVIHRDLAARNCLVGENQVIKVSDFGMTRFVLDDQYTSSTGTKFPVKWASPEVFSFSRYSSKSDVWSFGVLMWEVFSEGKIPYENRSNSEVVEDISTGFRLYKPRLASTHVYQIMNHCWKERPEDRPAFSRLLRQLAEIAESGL
Description: ITK inhibition assay, radioactive-phosphate incorporation. The conditions noted are these: [γ-33P]ATP, SAM68 peptide, 25° C. As for the experimental part:
Assays were carried out in a mixture of 20 mM MOPS (pH 7.0), 10 mM MgCl2, 0.1% BSA and 1 mM DTT. […] Assays were carried out at 25° C. in the presence of 50 nM Itk. An assay stock buffer solution was prepared containing all of the reagents listed above, with the exception of ATP and the test compound of interest.
The reaction was stopped after 10 minutes by the addition of […] 0.2M phosphoric acid+0.01% TWEEN 20. A multiscreen phosphocellulose filter 96-well plate (Millipore, Cat no. MAPHN0B50) was pretreated with 100 μL 0.2M phosphoric acid+0.01% TWEEN 20 prior to the addition of […] of the stopped assay mixture. The plate was washed with 4×200 μL 0.2M phosphoric acid+0.01% TWEEN 20.
Ki(app) data were calculated from non-linear regression analysis of the initial rate data using the Prism software package (GraphPad Prism version 3.0cx for Macintosh, GraphPad Software, San Diego Calif., USA).

The target of test [2] is T1, Itk. The test is described as follows: ITK inhibition assay (UV), standard coupled enzyme assay. The conditions noted are these: 100 μM ATP, 100 nM Itk, 25° C. As for the experimental part: Assays were carried out in a mixture of 20 mM MOPS (pH 7.0), 10 mM MgCl2, 0.1% BSA, 1 mM DTT, 2.5 mM phosphoenolpyruvate, 300 μM NADH, 30 μg/ml pyruvate kinase and 10 μg/ml lactate dehydrogenase. […]
An assay stock buffer solution was prepared containing all of the reagents listed above, with the exception of ATP and the test compound of interest. […] The plate was preincubated for 10 minutes at 25° C. and the reaction initiated by addition of 5 μl of ATP. Initial reaction rates were determined with a Molecular Devices SpectraMax Plus plate reader over a 10 minute time course. IC50 and Ki data were calculated from non-linear regression analysis using the Prism software package (GraphPad Prism version 3.0cx for Macintosh, GraphPad Software, San Diego Calif., USA).

The target in the next test is T2, Rlk (Homo sapiens, UniProt P42681).
T2 sequence (P42681 1-527): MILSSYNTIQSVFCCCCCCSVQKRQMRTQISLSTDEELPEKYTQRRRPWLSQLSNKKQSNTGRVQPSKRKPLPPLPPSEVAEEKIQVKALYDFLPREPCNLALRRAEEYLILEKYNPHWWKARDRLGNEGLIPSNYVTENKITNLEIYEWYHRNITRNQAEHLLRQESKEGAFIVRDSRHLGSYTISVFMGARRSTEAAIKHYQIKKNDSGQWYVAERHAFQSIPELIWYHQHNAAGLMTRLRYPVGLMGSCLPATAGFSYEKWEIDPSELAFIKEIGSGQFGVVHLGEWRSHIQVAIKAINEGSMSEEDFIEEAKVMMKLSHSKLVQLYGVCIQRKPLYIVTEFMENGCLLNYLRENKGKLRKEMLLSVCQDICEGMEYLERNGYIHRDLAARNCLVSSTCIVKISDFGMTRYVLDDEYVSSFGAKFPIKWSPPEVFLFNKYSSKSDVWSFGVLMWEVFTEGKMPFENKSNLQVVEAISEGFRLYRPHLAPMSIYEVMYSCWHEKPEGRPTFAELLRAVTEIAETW
Description: RLK inhibition assay, standard coupled enzyme assay. The conditions noted are these: 100 μM ATP, 40 nM Rlk, 30° C. As for the experimental part: Compounds were screened for their ability to inhibit Rlk using a standard coupled enzyme assay (Fox et al., Protein Sci., (1998) 7, 2249). Assays were carried out in a mixture of 20 mM MOPS (pH 7.0), 10 mM MgCl2, 0.1% BSA and 1 mM DTT. Final substrate concentrations in the assay were 100 μM ATP (Sigma Chemicals) and 10 μM peptide (Poly Glu:Tyr 4:1). Assays were carried out at 30° C. and in the presence of 40 nM Rlk. Final concentrations of the components of the coupled enzyme system were 2.5 mM phosphoenolpyruvate, 300 μM NADH, 30 μg/ml pyruvate kinase and 10 μg/ml lactate dehydrogenase.
An assay stock buffer solution was prepared containing all of the reagents listed above, with the exception of ATP and the test compound of interest. 60 μl of the stock solution was placed in a 96 well plate followed by addition of […] of DMSO stock containing serial dilutions of the test compound (typically starting from a final concentration of 7.5 μM). The plate was preincubated for 10 minutes at 30° C. and the reaction initiated by addition of 5 μl of ATP. Initial reaction rates were determined with a Molecular Devices SpectraMax Plus plate reader over a 10 minute time course. IC50 and Ki data were calculated from non-linear regression analysis using the Prism software package (GraphPad Prism version 3.0cx for Macintosh, GraphPad Software, San Diego Calif., USA).

For `O=C(Nc1cc(-c2ccncc2)c[nH]c1=O)c1ccc(CCl)cc1` [Compound I-5], the Ki (usually the equilibrium dissociation constant of an inhibitor or competing ligand from its target) is 100 to 1000 nM at Itk [1], 100 to 1000 nM at Itk [2] and greater than 1000 nM at Rlk.

Turning to `O=C(Nc1cc(-c2ccncc2)c[nH]c1=O)c1ccc(N2CCCC2)cc1` [Compound I-69], the Ki on Itk [1] and on Itk [2] was 100 to 1000 nM in each case.

`CN1CCN(c2ccc(C(=O)Nc3cc(-c4ccncc4)c[nH]c3=O)cc2)CC1` [Compound I-70] returned a Ki on Itk [2] of less than 100 nM.

With `O=C(Nc1cc(-c2ccncc2)c[nH]c1=O)c1ccc(N2CCCCCC2)cc1` [Compound I-76], the Ki at Itk [2] is less than 100 nM.

Take `O=C(Nc1cc(-c2ccncc2)c[nH]c1=O)c1ccc(N2CCCNCC2)cc1` [Compound I-78]: the Ki on Itk [2] was less than 100 nM.

`CN(C)CCCNc1ccc(C(=O)Nc2cc(-c3ccncc3)c[nH]c2=O)cc1` [Compound I-79] had a Ki on Itk [2] of less than 100 nM.

At Itk [2], `NCCCNc1ccc(C(=O)Nc2cc(-c3ccncc3)c[nH]c2=O)cc1` [Compound I-80] displayed a Ki of less than 100 nM.

As for `O=C(Nc1cc(-c2ccncc2)c[nH]c1=O)c1ccc(CN2CCOCC2)cc1` [Compound I-82], the Ki at Itk [1] and on Itk [2] was 100 to 1000 nM throughout.

Regarding `O=C(Nc1cc(-c2ccncc2)c[nH]c1=O)c1ccc(CN2CCNCC2)cc1` [Compound I-83], the Ki at Itk [1] and on Itk [2] was 100 to 1000 nM each time.

Regarding `CNCCN(C)Cc1ccc(C(=O)Nc2cc(-c3ccncc3)c[nH]c2=O)cc1` [Compound I-84], the Ki on Itk [1] and at Itk [2] was 100 to 1000 nM each time.

With `CSc1nccc(-c2c[nH]c(=O)c(NC(=O)c3ccc(C(C)(C)C)cc3)c2)n1` [II-4, 4-tert-Butyl-N-[5-(2-methylsulfanyl-pyrimidin-4-yl)-2-oxo-1,2-dihydro-pyridin-3-yl]-benzamide], the Ki at Itk [1] and at Itk [2] was 100 to 1000 nM each time.

For `CC(C)(C)c1ccc(C(=O)Nc2cc(-c3ccnc(N[C@@H]4CCNC4)n3)c[nH]c2=O)cc1` [II-31], the Ki was less than 100 nM on Itk [1] and less than 1000 nM at Rlk.

On to `CNCCNc1cccc(-c2c[nH]c(=O)c(NC(=O)c3ccc(C(C)(C)C)cc3)c2)n1` [II-35], for which the Ki on Itk [1] is less than 100 nM; on Rlk, less than 1000 nM.

As to `CNCCNc1cc(-c2c[nH]c(=O)c(NC(=O)c3ccc(C(C)(C)C)cc3)c2)ncn1` [II-38], the Ki on Itk [1] is 100 to 1000 nM; on Rlk, greater than 1000 nM.

In the case of `CNc1nccc(-c2c[nH]c(=O)c(NC(=O)c3ccc(N4CCCCC4)cc3)c2)n1` [II-40, N-(1,2-dihydro-5-(2-(methylamino)pyrimidin-4-yl)-2-oxopyridin-3-yl)-4-(piperidin-1-yl)benzamide], the Ki on Itk [1] was less than 100 nM; at Rlk, less than 1000 nM.

For `CNCCN(C)c1nccc(-c2c[nH]c(=O)c(NC(=O)c3ccc(N4CCCCC4)cc3)c2)n1` [II-65], the Ki at Itk [1] was less than 100 nM; at Rlk, greater than 1000 nM.

In the case of `CNCCNc1cccc(-c2c[nH]c(=O)c(NC(=O)c3ccc(N4CCCCC4)cc3)c2)c1` [II-75], the values for the inhibition constant (Ki) on Itk [1] and at Rlk were 100 to 1000 nM and greater than 1000 nM, respectively.

For the molecule `CNc1nccc(-c2c[nH]c(=O)c(NC(=O)c3ccc(N4CCN(CCCOC)CC4)cc3)c2)n1` [II-79], the results for the Ki at Itk [1] and at Rlk were less than 100 nM and less than 1000 nM, respectively.

Consider `CNc1nccc(-c2c[nH]c(=O)c(NC(=O)c3ccc(N4CCN(C(C)=O)CC4)cc3)c2)n1` [II-81], for which the values for the Ki on Itk [1] and on Rlk were less than 100 nM and less than 1000 nM, respectively.

Regarding `CC(C)(C)c1ccc(C(=O)Nc2cc(C3=CC(=O)CCC3)c[nH]c2=O)cc1` [II-83], the Ki is 100 to 1000 nM on Itk [1] and greater than 1000 nM on Rlk.

Consider `O=C1C=C(c2c[nH]c(=O)c(NC(=O)c3ccc(N4CCCCC4)cc3)c2)CCC1` [II-85], for which the Ki at Itk [1] is 100 to 1000 nM; at Rlk it was greater than 1000 nM.

With `O=C1C=C(c2c[nH]c(=O)c(NC(=O)c3ccc(N4CCCCC4)cc3)c2)CC1` [II-87], the Ki is 100 to 1000 nM at Itk [1] and greater than 1000 nM at Rlk.

For `CNc1cncc(-c2c[nH]c(=O)c(NC(=O)c3ccc(OCCC4CCNCC4)cc3)c2)n1` [II-143], the Ki is less than 100 nM on Itk [1] and greater than 1000 nM at Rlk.

Regarding `CNc1cncc(-c2c[nH]c(=O)c(NC(=O)c3ccc(N4CCN(CCO)CC4)cc3)c2)n1` [II-148], the results for the Ki on Itk [1] and at Rlk were less than 100 nM and greater than 1000 nM, respectively.

For `CNc1cc(C#N)cc(-c2c[nH]c(=O)c(NC(=O)c3ccc(N4CCNCC4)cc3)c2)n1` [II-160], the Ki at Itk [1] is less than 100 nM; at Rlk, greater than 1000 nM.

`CNc1cncc(-c2c[nH]c(=O)c(NC(=O)c3ccc(NC4CCNCC4)cc3)c2)n1` [II-163]: the Ki at Itk [1] is less than 100 nM; on Rlk, greater than 1000 nM.

As for `CNc1cncc(-c2c[nH]c(=O)c(NC(=O)c3ccc(N(C)CCN(C)C)cc3)c2)n1` [II-164], the values for the Ki at Itk [1] and on Rlk were less than 100 nM and greater than 1000 nM, respectively.

Take `CNc1cncc(-c2c[nH]c(=O)c(NC(=O)c3ccc(N4CC[C@@H](N(C)C)C4)cc3)c2)n1` [II-166]: the Ki at Itk [1] is less than 100 nM; at Rlk, greater than 1000 nM.

As for `CNc1cncc(-c2c[nH]c(=O)c(NC(=O)c3ccc(NCCCn4ccnc4)cc3)c2)n1` [II-168], the results for the Ki on Itk [1] and on Rlk were less than 100 nM and greater than 1000 nM, respectively.

`CNc1cc(F)cc(-c2c[nH]c(=O)c(NC(=O)c3ccc(N4CCC[C@H]4CN4CCCC4)cc3)c2)n1` [II-171]: the Ki on Itk [1] is less than 100 nM; on Rlk, greater than 1000 nM.

Turning to `CNc1cncc(-c2c[nH]c(=O)c(NC(=O)c3ccc(N4CCC[C@H]4CN4CCCC4)cc3)c2)c1` [II-178], the Ki on Itk [1] is less than 100 nM; on Rlk it was greater than 1000 nM.

`CNc1cc(C#N)cc(-c2c[nH]c(=O)c(NC(=O)c3ccc(N4CCC[C@H]4CN4CCCC4)cc3)c2)c1` [II-179]: the Ki is less than 100 nM at Itk [1] and greater than 1000 nM on Rlk.

Regarding `CC(C)c1ccc(NC(=O)c2cc(-c3ccncc3)c[nH]c2=O)cc1` [III-4], the Ki at Itk [1] was 100 to 1000 nM; at Rlk, greater than 1000 nM.

For `CC(C)(C)c1ccc(NC(=O)c2cc(-c3ccncc3)c[nH]c2=O)cc1` [III-5], the Ki on Itk [1] was 100 to 1000 nM; at Rlk, greater than 1000 nM.

The values are drawn from US8338597B2, “Pyridones useful as inhibitors of kinases” (Vertex Pharmaceuticals Incorporated, priority 2004, dated 2012).
